Assay results as given in patent US10392368B2, “Pyrazolo and triazolo bicyclic compounds as JAK kinase inhibitors” (THERAVANCE BIOPHARMA R&D IP, LLC, priority 2017, dated 2019).

Experiments:
JAK1 = target: T1, JAK1 (Homo sapiens, UniProt P23458); test: Biochemical JAK1 kinase assay (LanthaScreen); conditions: read-out: JAK 1 (pKi) (converted)
T1 construct: GST; purchased Life Technologies
Summary of the method: (§1)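 GST-tagged JAK enzyme and GFP-STAT1 peptide preincubated with compound 1 h, then ATP added; 1 h kinase reaction at ambient temperature, pH 7.5 HEPES/MgCl2 buffer, 1% DMSO. Tb-anti-pSTAT1 (pTyr701) TR-FRET, 520/495 nm ratio; IC50 from 4-parameter fit, converted to pKi via Cheng-Prusoff.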

[1] = system: IL-2 stimulated pSTAT5 in Tall-1 T cells; test: Cellular JAK3 potency assay: inhibition of IL-2 stimulated pSTAT5 in Tall-1 T cells; assay type: cell-based, human; conditions: Homo sapiens, TALL-1, IL-2 stimulated pSTAT5, Tall-1 T cells; read-out: Tall-1 (pIC50) (converted)
Summary of the method: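 In human Tall-1 T cells, IL-2 (300 ng/ml final, 30 min) drives STAT5 phosphorylation after a 1 h compound pretreatment. Lysates are assayed for pSTAT5 by AlphaLisa, and IC50 derived from signal versus concentration is expressed as pIC50.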

JAK3 = target: T2, JAK3 (Homo sapiens, UniProt P52333); test: Biochemical JAK3 kinase assay (LanthaScreen); parameters: GST; purchased Life Technologies; conditions: for Ki: read-out: JAK 3 (pKi) (converted); for JAK3 (pKi)-JAK1 (pKi): selectivity JAK3 over JAK1, difference of pKi
T2 sequence (P52333 1-1124): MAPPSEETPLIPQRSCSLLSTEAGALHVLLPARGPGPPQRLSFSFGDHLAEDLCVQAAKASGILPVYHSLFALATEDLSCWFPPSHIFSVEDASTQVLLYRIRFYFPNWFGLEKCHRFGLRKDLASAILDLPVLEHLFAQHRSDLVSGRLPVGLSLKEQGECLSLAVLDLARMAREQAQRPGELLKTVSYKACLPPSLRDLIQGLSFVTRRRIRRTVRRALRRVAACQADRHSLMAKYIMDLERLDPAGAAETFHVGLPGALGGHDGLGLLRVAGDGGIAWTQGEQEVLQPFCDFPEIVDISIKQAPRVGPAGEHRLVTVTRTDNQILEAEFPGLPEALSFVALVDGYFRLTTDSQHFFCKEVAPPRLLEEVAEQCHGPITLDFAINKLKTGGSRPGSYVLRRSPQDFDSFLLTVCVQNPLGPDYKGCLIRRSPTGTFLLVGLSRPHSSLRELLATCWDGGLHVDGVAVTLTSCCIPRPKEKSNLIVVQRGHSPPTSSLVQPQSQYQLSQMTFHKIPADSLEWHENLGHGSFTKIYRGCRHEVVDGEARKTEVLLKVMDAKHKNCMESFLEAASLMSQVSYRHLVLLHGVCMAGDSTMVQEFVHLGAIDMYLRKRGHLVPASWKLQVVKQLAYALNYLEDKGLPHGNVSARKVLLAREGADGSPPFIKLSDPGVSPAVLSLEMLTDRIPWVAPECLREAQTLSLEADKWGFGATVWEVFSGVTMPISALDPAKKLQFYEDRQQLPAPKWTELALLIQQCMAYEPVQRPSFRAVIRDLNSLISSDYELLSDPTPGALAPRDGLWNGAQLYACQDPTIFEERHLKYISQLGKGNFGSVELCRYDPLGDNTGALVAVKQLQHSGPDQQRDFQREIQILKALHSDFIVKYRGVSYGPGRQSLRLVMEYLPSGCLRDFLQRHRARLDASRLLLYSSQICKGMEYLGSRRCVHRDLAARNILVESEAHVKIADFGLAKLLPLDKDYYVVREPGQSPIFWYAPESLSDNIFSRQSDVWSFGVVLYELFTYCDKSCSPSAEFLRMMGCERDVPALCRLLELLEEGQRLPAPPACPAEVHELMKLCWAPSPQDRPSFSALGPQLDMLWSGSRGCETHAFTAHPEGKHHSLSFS
Summary of the method: as §1

T1 sequence (P23458 whole entry): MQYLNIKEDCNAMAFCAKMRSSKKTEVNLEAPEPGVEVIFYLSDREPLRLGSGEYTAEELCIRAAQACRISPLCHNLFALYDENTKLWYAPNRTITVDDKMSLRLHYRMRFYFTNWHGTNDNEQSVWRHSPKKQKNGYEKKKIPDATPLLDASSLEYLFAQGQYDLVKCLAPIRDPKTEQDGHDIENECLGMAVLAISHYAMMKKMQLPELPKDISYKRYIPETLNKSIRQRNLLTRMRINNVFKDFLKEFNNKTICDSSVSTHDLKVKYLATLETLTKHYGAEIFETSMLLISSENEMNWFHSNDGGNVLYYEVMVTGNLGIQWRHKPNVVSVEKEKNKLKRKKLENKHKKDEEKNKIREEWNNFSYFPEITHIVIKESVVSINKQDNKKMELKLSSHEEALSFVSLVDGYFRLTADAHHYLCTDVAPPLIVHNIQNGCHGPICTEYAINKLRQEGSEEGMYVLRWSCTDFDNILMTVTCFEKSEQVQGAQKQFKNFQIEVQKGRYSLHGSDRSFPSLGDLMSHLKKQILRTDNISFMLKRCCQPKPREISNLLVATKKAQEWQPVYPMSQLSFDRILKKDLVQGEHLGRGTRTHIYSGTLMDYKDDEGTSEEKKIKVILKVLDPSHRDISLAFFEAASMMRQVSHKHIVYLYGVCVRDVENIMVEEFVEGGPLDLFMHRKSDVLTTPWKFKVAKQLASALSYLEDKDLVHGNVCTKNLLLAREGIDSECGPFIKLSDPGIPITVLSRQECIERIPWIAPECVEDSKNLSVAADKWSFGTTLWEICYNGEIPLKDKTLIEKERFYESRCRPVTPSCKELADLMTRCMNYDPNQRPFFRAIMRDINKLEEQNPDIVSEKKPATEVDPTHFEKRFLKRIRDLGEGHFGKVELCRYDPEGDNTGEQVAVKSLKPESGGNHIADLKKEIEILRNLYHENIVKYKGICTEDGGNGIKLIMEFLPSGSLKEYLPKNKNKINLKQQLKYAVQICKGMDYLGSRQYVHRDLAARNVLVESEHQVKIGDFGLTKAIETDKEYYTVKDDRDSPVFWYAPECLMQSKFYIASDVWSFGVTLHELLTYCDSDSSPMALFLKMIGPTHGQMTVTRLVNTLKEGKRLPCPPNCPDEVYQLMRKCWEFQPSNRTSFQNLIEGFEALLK

SMILES | Ki (JAK1) [nM] | IC50 [1] [nM] | Ki (JAK3) [nM] | JAK3 (pKi)-JAK1 (pKi) (JAK3)
CN(C)C/C=C/C(=O)N1CC[C@@H]1COc1cc(-c2ccc(O)cc2)cc2[nH]ncc12 [Compound 12-22] | > 100 | 200 to 1000 | 0.1 to 1 | A (a value of 3 or above)
C=CC(=O)N1CC[C@@H]1COc1cc(-c2ccc(O)cc2)cc2[nH]ncc12 [Compound 12-23] | > 100 | 31.6 to 200 | 0.1 to 1 | A (a value of 3 or above)
CN(C)C/C=C/C(=O)N1CC[C@H]1COc1cc(-c2ccc(O)cc2)cc2[nH]ncc12 [Compound 12-24] | > 100 | 200 to 1000 | 0.1 to 1 | A (a value of 3 or above)
C=CC(=O)N1CC[C@H]1COc1cc(-c2ccc(O)cc2)cc2[nH]ncc12 [Compound 12-25] | > 100 | 200 to 1000 | 0.1 to 1 | B (a value of 2.3 to 3)
C=CC(=O)N1CC(F)(C2(Oc3cc(-c4ccc(O)cc4)cc4[nH]ncc34)CC2)C1 [Compound 12-37] | 10 to 100 | 31.6 to 200 | 0.1 to 1 | B (a value of 2.3 to 3)
C=CC(=O)N1CCCC(C(=O)Nc2cc(-c3ccc(O)cc3)cc3[nH]ncc23)C1 (stereo not drawn) [Compound 12-40] | > 100 | 200 to 1000 | 0.1 to 1 | B (a value of 2.3 to 3)
CN(C)C/C=C/C(=O)N1CC2(CC(Oc3cc(-c4ccc(O)cc4)cc4[nH]ncc34)C2)C1 [Compound 12-52] | 10 to 100 | 200 to 1000 | 0.1 to 1 | B (a value of 2.3 to 3)
C=CC(=O)N1CCC[C@@H](C(=O)Nc2cc(-c3ccc(O)cc3)cc3[nH]ncc23)C1 [Compound 12-55] | > 100 | 31.6 to 200 | < 0.1 | A (a value of 3 or above)
C=CC(=O)N1CCC[C@H](C(=O)Nc2cc(-c3ccc(O)cc3)cc3[nH]ncc23)C1 [Compound 12-56] | > 100 | 31.6 to 200 | < 0.1 | A (a value of 3 or above)
C=CC(=O)N1CCC(C(=O)Nc2cc(-c3ccc(O)cc3)cc3[nH]ncc23)CC1 [Compound 12-59] | > 100 | 31.6 to 200 | < 0.1 | A (a value of 3 or above)
C=CC(=O)N1C[C@H](C(=O)Nc2cc(-c3ccc(O)cc3)cc3[nH]ncc23)OC(C)(C)C1 [Compound 12-62] | > 100 | 31.6 to 200 | < 0.1 | A (a value of 3 or above)
C=CC(=O)N1CC[C@H]1C(=O)Nc1cc(-c2ccc(O)cc2)cc2[nH]ncc12 [Compound 12-69] | > 100 | 31.6 to 200 | < 0.1 | A (a value of 3 or above)
